# Test results taken from patent US20240174980A1, “PROCESS FOR MANUFACTURE OF A COMPOSITION FOR THE TREATMENT OF OSTEOARTHRITIS IN A SUBJECT” (STEM CELLX EUROPE KFT, priority 2021, published 2024).
# Test system: GADD45, CEBPb and MMP13 expression in differentiating canine MSCs
# Experiment: Expression of hypertrophic chondrocyte markers (relative RNA levels) during chondrogenic differentiation
# Type: cell-based
# Conditions: relative RNA levels at days 10 and 24 of chondrogenic differentiation
# Description: 1B depicts the experiment in which we added 30 ng/ml kynurenine to the differentiating MSCs to examine its effect on the markers of hypertrophic chondrocytes. In the experiment, we measured the expression of the two main regulatory transcription factors of hypertrophic chondrocyte differentiation, factors GADD45 and CEBPb, and of their target, matrix metalloproteinase-13 (MMP13), by measuring their relative RNA levels on days 10 (early) and 24 (mature) of chondrogenic differentiation.
# 2B depicts the experiment in which we added 50 ng/ml THBS1 to the differentiating MSCs to examine its effect on the markers of hypertrophic chondrocytes. In the experiment, we measured the expression of the two main regulatory transcription factors of hypertrophic chondrocyte differentiation, factors GADD45 and CEBPb, and of their target, matrix metalloproteinase-13 (MMP13), by measuring their relative RNA levels on days 10 (early) and 24 (mature) of chondrogenic differentiation.
# During the analysis, first we quantified the levels of KYNA produced in canine AD-MSCs derived from 8 independent donations by ELISA in passage 3 cultures. […]
# In another analysis, we quantified the levels of THBS1 produced in the AD-MSCs derived from 8 independent donations by ELISA in passage 3 cultures. […]
Molecule,"Effect on hypertrophic chondrocyte phenotype (expression of GADD45, CEBPb and MMP13) (30 ng/ml KYNA added at day 7)","Effect on hypertrophic chondrocyte phenotype (expression of GADD45, CEBPb and MMP13) (50 ng/ml THBS1 added at day 7)"
"Nc1ccccc1C(=O)CC(N)C(=O)O (centres unmarked) [KYNA, kynurenine]",able to suppress the hypertrophic chondrocyte phenotype,–
"THBS1: Thrombospondin 1, adhesive glycoprotein encoded by the THBS1 gene, added to differentiating MSCs at 50 ng/ml",–,sufficient to suppress the hypertrophic chondrocyte phenotype
